Source: patent US8796230B2, “Ivermectin antagonizes ethanol inhibition in P2X4 receptors” (University of Southern California, priority 2010, dated 2014)
Substitutions are numbered along the chain they refer to. “Also recorded” adds a separate entry of the source. Where two headings read alike, the source gives them in different places.

Experiments:
[1] = target: T1, rat P2X4R (Rattus norvegicus, UniProt P51577); experiment: Two-electrode voltage-clamp of ATP EC10-induced currents in WT P2X4Rs expressed in Xenopus oocytes; assay type: cell-based
T1 construct: expressed in transfected cells; host or cells: Xenopus laevis oocytes injected with cRNA
T1 sequence (P51577 1-388): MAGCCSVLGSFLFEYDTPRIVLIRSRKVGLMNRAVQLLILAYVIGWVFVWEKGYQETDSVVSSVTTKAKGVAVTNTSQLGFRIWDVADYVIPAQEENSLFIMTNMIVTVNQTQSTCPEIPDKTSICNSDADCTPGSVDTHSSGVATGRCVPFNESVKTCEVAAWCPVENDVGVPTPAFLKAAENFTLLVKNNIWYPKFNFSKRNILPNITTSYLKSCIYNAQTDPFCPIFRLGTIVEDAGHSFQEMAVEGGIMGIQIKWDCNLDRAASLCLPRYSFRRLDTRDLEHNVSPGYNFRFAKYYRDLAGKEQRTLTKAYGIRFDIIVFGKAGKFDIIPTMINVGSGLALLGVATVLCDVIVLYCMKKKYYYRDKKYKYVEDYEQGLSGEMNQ
Description: Isolation of Xenopus Laevis oocytes and cRNA injections. Xenopus oocytes were isolated and maintained as described previously^18,19. All procedures for the maintenance of Xenopus Laevis frogs and oocyte isolation were approved by The Institutional Animal Care and Use Committee of the University of Southern California. Stage V and VI oocytes were used for cRNA (0.01-5 ng) injections using Nanoject II Nanoliter injection system (Drummond Scientific, Broomall, Pa.) one day after isolation. Injected oocytes were stored at 16° C. in incubation medium containing (in mM), […], theophylline 0.6, pyruvic acid 2.5, with 1% horse serum and 0.05 mg/ml gentamycin. The oocytes were used in electrophysiological recordings for 3-10 days after cRNA injections.
(§1) Site-directed mutagenesis and cRNA synthesis. The cDNA of rat P2X4R (GenBank accession No. X87763) was sub-cloned into pcDNA3 vector (Invitrogen, Carlsbad, Calif.). Mutagenesis was performed to introduce single point mutations using QuickChange IIXL Site-Directed Mutagenesis kit (Stratagene, La Jolla, Calif.). The sequences of mutant constructs were verified using automated DNA sequencing (USC/Norris DNA Core Facility, University of Southern California).
The DNA of WT or mutant receptors was linearized and transcribed using the mMESSAGE mMACHINE kit (Ambion, Austin, Tex.) to result in cRNA, which was stored at −70° C. until injection.
(§2) Whole-cell voltage-clamp recordings. Two-electrode voltage-clamp recordings of oocytes were performed using a Warner Instruments Model OC-725C oocyte clamp amplifier (Hamden, Conn.) using procedures published earlier^5,6.
(§3) Experimental procedures. To induce currents and test the effects of alcohols and IVM in the present experiments, maximal (100 μM) or submaximal ATP concentrations (EC5-10 furthered referred to as EC10) were used. It has been previously shown that the use of EC10 can maximize the effects of ethanol and minimize receptor desensitization 18,19. The washout time between agonist applications was at least 5-10 min to allow complete re-sensitization of the receptors^18, 19.
(§4) Effects of the drugs were tested after a stable response to ATP EC10 was obtained. After a sufficient washout time (5-15 min), the cells were challenged with the same ATP EC10 to ensure an accurate response to the drugs and to asses any change in the baseline level.
(§5) IVM and alcohol applications.
(§6) Data analysis. Data are obtained from several batches of oocytes of at least 3 different frogs and are expressed as mean±SEM. Ethanol (hexanol) and/or IVM effects are presented as percentage change of peak currents evoked by ATP EC10 alone. Data were fitted to a concentration-response curve by using the following logistic equation: I=Imax*[drug]/([drug]+(EC50)), where I/Imax is the percentage of the maximum obtainable response, EC50 is the concentration producing a half-maximal response. GraphPAD Prism software (San Diego, Calif.) was used for data analysis and curve fitting. Statistical analysis was performed using unpaired t-test with significance set at P<0.05.

[2] = target: T2, mutant P2X4Rs at position 336 (Rattus norvegicus, UniProt P51577, M336Q); experiment: Two-electrode voltage-clamp of ATP-induced currents in mutant P2X4Rs with substitutions at position 336 in Xenopus oocytes; assay type: cell-based; settings: Met336 substituted with Gln; IVM 3 μM
T2 construct: expressed in transfected cells; host or cells: Xenopus laevis oocytes injected with cRNA
T2 sequence (P51577 1-388 M336Q): T1 sequence (P51577 1-388) with M336Q
Description: as §1, §2, §3, §4, §5, §6

[3] = test system: mutant P2X4Rs at position 336; experiment: as above; assay type: cell-based, rat; settings: IVM 3 μM
Description: as §1, §2, §3, §4, §5, §6

[4] = target: T3, P2X4Rs (Rattus norvegicus, UniProt P51577); experiment: Surface biotinylation and Western blotting of P2X4R surface expression in oocytes; assay type: cell-based; settings: 3 μM IVM in the presence of 1 μM ATP; 20 s and 2 min
T3 construct: expressed in transfected cells; host or cells: Xenopus laevis oocytes injected with cRNA
T3 sequence (P51577 1-388): T1 sequence (P51577 1-388)
Description: Surface biotinylation and Western blotting. Oocytes expressing P2X4R cRNA were treated with 3 μM IVM in the presence and absence of 1 μM ATP and incubated with 1.0 mg/ml membrane-impermeable sulfo-NHS-SS-biotin (Pierce Biotechnology, Rockford, Ill.) for 1 hr on ice. After lysis, the biotinylated proteins were precipitated by overnight incubation with streptavidin beads (Pierce Biotechnology) and extracted using SDS sample buffer. Protein lysates of total and biotinylated fractions were then run on 10% SDS-PAGE, transferred to PVDF membranes and blotted with a rabbit P2X4R antibody (Millipore, Temecula, Calif.). Following incubation with the secondary anti-rabbit antibody, the P2X4R bands were visualized using enhanced chemiluminescence (Pierce Biotechnology).

[5] = target: T4, rat WT P2X4 receptor (Rattus norvegicus, UniProt P51577); experiment: Comparison of Ivermectin analogues: two-electrode voltage-clamp of ATP EC10 currents in rat WT P2X4 receptor in Xenopus oocytes; assay type: cell-based; settings: for potentiation of ATP-induced currents, concentration dependence: co-application and pre-incubation (FIGS. 10C and 10D)
T4 construct: expressed in transfected cells; host or cells: Xenopus laevis oocytes injected with cRNA
T4 sequence (P51577 1-388): T1 sequence (P51577 1-388)
Description: Isolation of Xenopus Oocytes and cRNA Injections. Xenopus laevis frog (Nasco; WI) maintenance, oocyte isolation and cRNA injections were performed according to protocols as described previously (11,12,24).
Transcription of cDNA to cRNA. XL-Blue E. coli competent cells (Stratagene; CA) were transformed with rat WT P2X4 receptor cDNAs cloned into pcDNA3 vector (Invitrogen; CA). The isolated DNA was linearized and transcribed to result in capped cRNA, which was dissolved in nuclease-free water and stored at −70° C. until injection.
Whole-Cell Voltage Clamp Recording. […] Electrodes were prepared and used to impale the oocyte that was continuously perfused at the rate of 3-4 ml/min by extracellular bathing solution per procedures previously published (11,12,24). The peak currents recorded using a strip-chart recorder (Barnstead/Thermolyne, Iowa) were used in data analysis. All experiments were performed at room temperature (20-23° C.).
Experimental Procedures. Maximal ATP currents were induced by 15 s application of 100 μM ATP. Submaximal ATP concentrations (EC10) were applied for 20 s to generate currents. Ethanol and ABM/IVM were co-applied with ATP EC10. Washout time between drug applications was at least 5 min.
Data Analysis. Data are obtained from several batches of at least 3 different oocyte batches and are presented as percentage change of peak currents evoked by ATP EC10 alone±SEM. GraphPAD Prism software (San Diego, Calif.) was used for data analysis and curve fitting. Statistical analysis was performed using Student's unpaired t-test and significance set at P<0.05.

[6] = test system: male C57BL/6 mice; settings: for decrease in alcohol consumption: 10% alcohol, 24 hour access
[7] = test system: uninjected oocytes; experiment: Resting membrane currents in uninjected oocytes
Description: IVM and alcohol applications. […] To allow comparison of the effects of IVM with those of ethanol, the same co-application protocol was used for IVM.

[8] = test system: C57BL/6 mice; experiment: Two-bottle choice ethanol (10E versus water) intake in C57BL/6 mice
Description: Based on the initial experiments, a second study was conducted using a similar research design strategy with the following changes. Using a within subjects design, alcohol drinking was allowed to stabilize (based on DOSE approximately 10 g/kg) with a new set of C57Bl mice (n=15). […] On intervening days, the mice were injected with saline. After 3 days of saline injections (allowing for alcohol drinking to restabilize back to ‘baseline’ levels), the mice were injected with a single, higher dose of IVM (5.0 mg/kg). Once again drinking was allowed to re-established back to baseline.

[9] = test system: P2X2R; experiment: Effect of n-chain alcohols on P2X2R function (unpublished data); assay type: cell-based
Description: This possibility was investigated by testing the effects of IVM on another n-chain alcohol. Previous investigations report that short chain alcohols potentiate, whereas long chain alcohols inhibit, native nicotinic acetylcholine receptors (nAChRs) contained in neuromuscular or Torpedo preparations^26-28. This alcohol crossover occurred at approximately butanol in nAChRs expressed in Xenopus oocytes^29. […] It is believed that testing an alcohol that produced potentiation, rather than inhibition, would provide an alternative method of determining if the interaction between ethanol and IVM represented an additive effect.

[10] = test system: mutant P2X4Rs at position 336; settings: cited from earlier work

CC[C@H](C)[C@H]1O[C@]2(CC[C@@H]1C)C[C@@H]1C[C@@H](C/C=C(\C)[C@@H](O[C@H]3C[C@H](OC)[C@@H](O[C@H]4C[C@H](OC)[C@@H](O)[C@H](C)O4)[C@H](C)O3)[C@@H](C)/C=C/C=C3\CO[C@@H]4[C@H](O)C(C)=C[C@@H](C(=O)O1)[C@]34O)O2 [IVM, 5-O demethyl-22,23-dihydroavermectin A1a]
antagonism of the inhibitory effect of ethanol on ATP-activated currents ([1]; 0.5 μM IVM co-applied with 25 mM ethanol): completely antagonized | potentiation of ATP-gated currents in P2X4Rs ([1]; 0.5 μM IVM, delivered separately, ATP EC10): 31±4.9% | antagonism of the inhibitory effects of ethanol ([1]; IVM 0.5 μM, 200 mM ethanol): did not significantly alter | antagonism of the inhibitory effects of ethanol ([1]; IVM 0.5 μM, 50 and 100 mM ethanol): completely antagonized | effect on ATP-induced currents in P2X4R ([1]; IVM 3 μM applied individually): significantly potentiated | net result of exposure to both IVM and hexanol versus additive effects ([1]; IVM 3 μM with hexanol 10 mM): significantly less | combined action of IVM and ethanol versus estimated additive values of the individual effects ([1]; IVM 0.5, 1 and 3 μM with ethanol 50, 100, 200 mM): significantly lower | antagonism of the inhibitory effects of ethanol ([1]; IVM 1.0 and 3.0 μM, all ethanol concentrations (50-200 mM)): completely antagonizing | effect on EC10 ATP-gated currents in P2X4Rs ([1]; IVM co-applied with ATP, concentration-dependent and reversible): significantly potentiated | IVM sensitivity compared to non-polar bulky substitutions [2]: approximately the same effect | degree of IVM potentiation compared to WT P2X4Rs ([3]; Met336 substituted with Ala or Val): markedly increased | sensitivity to IVM ([3]; Met336 substituted with Arg or Glu): eliminated sensitivity | degree of IVM potentiation compared to WT P2X4Rs ([3]; Met336 substituted with Phe or Trp): increased IVM potentiation | surface expression levels of P2X4Rs in oocytes [4]: did not change | antagonism of the inhibitory effects of ethanol ([5]; IVM co-applied with ethanol (FIGS. 9A and B)): antagonizes | potentiation of ATP-induced currents, concentration dependence [5]: concentration dependent | decrease in alcohol consumption ([6]; IVM 2.5 mg/kg): 32% | decrease in alcohol consumption ([6]; IVM 10 mg/kg): 50% | resting membrane currents in uninjected oocytes [7]: did not affect | average water consumption ([8]; IVM 10 mg/kg intraperitoneally): significant increase | ethanol intake ([8]; IVM 10 mg/kg intraperitoneally): non-significant reduction | daily 10E preference ([8]; IVM 10 mg/kg intraperitoneally prior to each day of access, 4 days, versus saline): strong trend | 10E preference on day 3 ([8]; IVM 10 mg/kg intraperitoneally, day 3): significantly lower | ethanol consumption ([8]; single injection of IVM 2.5 mg/kg and 5.0 mg/kg, within subjects design, versus baseline with saline): significantly reduced

CCO [ethanol]
inhibition at 25000 µM ([1]; 25 mM ethanol, delivered separately, ATP EC10, read-out: inhibition of ATP-gated currents in P2X4Rs): 9 ± 2.3% | effect on ATP EC10-induced currents in P2X4Rs ([1]; ethanol 25-200 mM co-applied with ATP, concentration-dependent and reversible): inhibited | effect on ATP-induced currents in P2X4R ([1]; ethanol (C2) 200 mM): inhibited | effect on P2X2R function [9]: inhibit | sensitivity of the receptor to ethanol ([10]; Ala, Val at position 336): reduced | sensitivity of the receptor to ethanol ([10]; Arg or Glu at position 336): insensitive

CCCCCCO [hexanol]
effect on ATP-induced currents in P2X4R ([1]; hexanol (C6) 10 mM): significantly potentiated; also recorded: significant potentiation

CCCO [propanol]
effect on P2X2R function [9]: inhibit

Abamectin [ABM]
antagonism of the inhibitory effects of ethanol ([5]; ABM 0.5 μM, 25 and 50 mM ethanol): antagonizes | antagonism of the inhibitory effects of ethanol ([5]; ABM 1.0 μM, all ethanol concentrations tested): able to antagonize | potency in modulating P2X4R activity relative to IVM (more potent) ([5]; higher concentrations (≧3 μM)): 3-10 fold | potentiation of P2X4R activity compared with IVM ([5]; lower concentrations (0.5 and 1.0 μM)): to the same degree as IVM

Selamectin
potency in modulating P2X4R activity relative to IVM (lower potency) [5]: 3-5 fold | antagonism of the inhibitory effects of ethanol ([5]; SEL at 3 and 10 mM, 50 mM ethanol, co-application): antagonistic effect | potentiation of ATP-induced currents, concentration dependence [5]: small concentration-independent potentiation | potentiation of P2X4Rs ([5]; only at 10 μM SEL during co-application): Significant potentiation | potentiation with the pre-incubation protocol versus co-application ([5]; pre-incubation): higher potentiation | ethanol intake in mice ([6]; mouse, in vivo): no effect

butanol
effect on ATP-induced currents in P2X4R ([1]; butanol (C4) 50 mM): minimal effect | effect on ATP-induced currents in P2X4R ([1]; butanol (C4) 50 mM, listed as Butanol): minimal effects | effect on P2X2R function [9]: potentiates
